This note sets out measurements from patent US12605653B2, “Anionic switchable hydrophilicity solvents” (QUEEN'S UNIVERSITY AT KINGSTON, priority 2022, dated 2026).

Series [1] can be described thus: Evaluation of the switching behaviour of ASHS systems (carboxylic acid/base/water) under air and 1 bar of CO2. It is filed as physicochemical. Particulars: for Behaviour of the system: base NaOH; for Behaviour of the system after CO2 addition / pH under 1 bar of CO2 / pH under air: 20° C.; for Phase behaviour upon addition of 1 bar of CO2: base Jeffamine D-230, TEA, DMEA or 3DMAP, base:acid mole ratio 1:1, water:acid mass ratio 15:1 and other ratios; for Phase behaviour upon addition of CO2 / Phases under air: substoichiometric aqueous NaOH, 0.6 to 0.7 equivalents of base. On the procedure: Base solutions were prepared by combining the desired base and water (mass for components measured in an analytical scale) into either a 10 or 25 mL graduated cylinder (containing a magnetic stir bar) depending on the final volume of the mixture obtained. The carboxylic acid (mass measured using an analytical balance prior to addition) being studied was added to the base solution, and the mixture was mixed with the help of a magnetic stir plate. The amount of base and water used were selected based on the acid:base:water ratio desired. Experiments were carried out using stoichiometric and substoichiometric amounts of the base relative to the number of mols of acid added. In addition, the quantity of water used was adjusted based on the acid:water mass ratio desired. A typical experiment would contain 1 g of the carboxylic acid; between 0.4 and 1 mol of base per mol of acid; and a water mass varying from 1 to 9.5 g.
During a typical experiment, CO2 would be added for approximately 2 h at atmospheric pressure. At the end of the 2 h, the sparge tube would be removed, and the number and volume of the phases obtained would be recorded. The pH was once again recorded. For mixtures with only 1 phase, the pH of that phase was recorded. While for mixtures with 2 phases, the pH of the aqueous phase was recorded.
In the systems in which the base:acid mole ratio and the water:acid mass ratio were being studied, a slight modification from this method was used. The acid being tested (1 g) was mixed with 1 g of water and the required amount of NaOH (based on the acid:base molar ratio desired) to prepare the mixture. […]
The base solution was then added to the carboxylic acid, and the next steps followed the procedure previously described.

The conditions of series [2]: CPPA-EPS mixture, limited by viscosity; 60° C.
[3] abbreviates: base 3DMAP, base:acid mole ratio 0.45:1, H2O:acid mass ratio 2.5:1.
The mark [4] stands for this setting: base DMEA, base:acid mole ratio 0.50:1, H2O:acid mass ratio 2.5:1.
Setting [5] is: base Jeffamine D-230 (two moles acid per mole D-230), H2O:acid mass ratio 12:1, 1 bar CO2, partial = acid recovered smaller than mass added.
Setting [6] is: base Jeffamine D-230 (two moles acid per mole D-230), H2O:acid mass ratio 12:1.
The mark [7] stands for this setting: base Jeffamine D-230 (two moles acid per mole D-230), H2O:acid mass ratio 15:1, 1 bar CO2, partial = acid recovered smaller than mass added.
Setting [8] is: base Jeffamine D-230 (two moles acid per mole D-230), H2O:acid mass ratio 15:1.
The mark [9] stands for this setting: base MDEA, base:acid mole ratio 0.50:1, H2O:acid mass ratio 2.5:1.
The mark [10] stands for this setting: carboxylic acid:H2O mass ratio 1:2.5, carboxylic acid:NaOH mol ratio 1:0.8.
Setting [11] is: base TEA, base:acid mole ratio 0.40:1, H2O:acid mass ratio 2.5:1.
Where [12] appears, read: base 3DMAP, base:acid mole ratio 0.55:1, H2O:acid mass ratio 2.5:1.
Where [13] appears, read: base DMEA, base:acid mole ratio 0.60:1, H2O:acid mass ratio 2.5:1.
[14] abbreviates: base Jeffamine D-230 (two moles acid per mole D-230), H2O:acid mass ratio 1:1-9.5:1.
Setting [15] is: base MDEA, base:acid mole ratio 0.65:1, H2O:acid mass ratio 2.5:1.
[16] abbreviates: base TEA, MDEA, DMEA or 3-DMAP, base:acid mol ratio 1:1, H2O:acid mass ratio 12:1-15:1.
[17] abbreviates: base TEA, base:acid mole ratio 0.65:1, H2O:acid mass ratio 2.5:1.
Setting [18] is: base 3DMAP, base:acid mole ratio 0.60:1, H2O:acid mass ratio 2.5:1.
Setting [19] is: base DMEA, base:acid mole ratio 0.55:1, H2O:acid mass ratio 2.5:1.
Where [20] appears, read: base MDEA, base:acid mole ratio 0.55:1, H2O:acid mass ratio 2.5:1.
Setting [21] is: base TEA, base:acid mole ratio 0.60:1, H2O:acid mass ratio 2.5:1.

As for `CCCCCCCCC(CCCCCC)C(=O)O` (centres unmarked) [2-hexyldecanoic acid], the “Behaviour of the system” value in series [1] (carboxylic acid:H2O mass ratio 1:12, carboxylic acid:NaOH mol ratio 1:1) is recorded as “Biphasic under air”.
As for `CC(C(=O)O)c1ccccc1` (centres unmarked) [2-phenylpropionic acid], the “Behaviour of the system” value in series [1] (carboxylic acid:H2O mass ratio 1:2.5, carboxylic acid:NaOH mol ratio 1:0.5 and 1:0.6) is given as “Monophasic under”.
As for `C=CCCCCCCCCC(=O)O` [10-undecenoic acid], in series [1] (carboxylic acid:H2O mass ratio 1:2.5, carboxylic acid:NaOH mol ratio 1:1), the “Behaviour of the system” value was “Switchable”.
Turning to `O=C(O)CCC1CCCC1` [CPPA, 3-cyclopentylpropionic acid], the “Behaviour of the system after CO2 addition” value in series [1] (base 3DMAP, base:acid mole ratio 0.45:1, H2O:acid mass ratio 2.5:1, 1 bar CO2, threshold 50 vol % recovered) is given as “Phase separation above 50”; in series [1] (base DMEA, base:acid mole ratio 0.50:1, H2O:acid mass ratio 2.5:1, 1 bar CO2) it was “No phase separation”; in series [1] (setting [5]), “No phase separation”; in series [1] (setting [7]), “No phase separation”; in series [1] (base MDEA, base:acid mole ratio 0.50:1, H2O:acid mass ratio 2.5:1, 1 bar CO2) it was “No phase separation”; in series [1] (base TEA, base:acid mole ratio 0.40:1, H2O:acid mass ratio 2.5:1, 1 bar CO2), “No phase separation”. The “pH under 1 bar of CO2” value is reported as 6.02 in series [1] (setting [3]); 6.25 in series [1] (setting [4]); 6.55 in series [1] (setting [6]); 6.45 in series [1] (setting [8]); 6.23 in series [1] (setting [9]); 6.04 in series [1] (setting [11]). For the same compound, the pH under air in series [1] (setting [3]) stood at 6.06; in series [1] (setting [4]), 6.22; in series [1] (setting [6]), 7.00; in series [1] (setting [8]) it was 6.94; in series [1] (setting [9]), 6.16; in series [1] (setting [11]), 5.98. Also, in series [1] (MDEA), the “Phase behaviour upon addition of 1 bar of CO2” value is listed as “no phase separation was observed”. Besides, the “Behaviour of the system” value in series [1] (2:1 H2O:acid mass ratio, 1 bar CO2, narrow range of base:acid ratio) is “successful switchable behaviour”; in series [1] (setting [10]) it was “Switchable”. In addition, in series [1], the “Phase behaviour upon addition of CO2” value is reported as “phase separation was observed”. Further, the Phases under air result in series [1] was “one phase”. Moreover, the “maximum polymer (EPS) loading attained in the carboxylic acid” value in series [2] is listed as 50 wt %.
For `CCCCCC(=O)O` [Hexanoic acid, hexanoic acid], the “Behaviour of the system” value in series [1] (carboxylic acid:H2O mass ratio 2:1, carboxylic acid:NaOH mol ratio 1:0.6) is given as “Monophasic under”.
For the compound `CC(C)C(=O)O` [Isobutyric acid, isobutyric acid], in series [1] (carboxylic acid:H2O mass ratio 1:2.5, carboxylic acid:NaOH mol ratio 1:0.6), the “Behaviour of the system” value is “Monophasic under”.
Consider `CCCCC/C=C\C/C=C\CCCCCCCC(=O)O` [Linoleic acid, linoleic acid], for which the “Behaviour of the system” value in series [1] (carboxylic acid:H2O mass ratio 1:5, carboxylic acid:NaOH mol ratio 1:1) was “Biphasic under air”.
For `CCCCCCCCC(=O)O` [Nonanoic acid, nonanoic acid], the “Behaviour of the system” value in series [1] (carboxylic acid:H2O mass ratio 1:2.5, carboxylic acid:NaOH mol ratio 1:0.7) is given as “Switchable”.
In the case of `CCCCCCCC(=O)O` [Octanoic acid, octanoic acid, reference compound], the “Behaviour of the system after CO2 addition” value was “Phase separation below 50” in series [1] (base 3DMAP, base:acid mole ratio 0.55:1, H2O:acid mass ratio 2.5:1, 1 bar CO2, threshold 50 vol % recovered); “Phase separation below 50” in series [1] (base DMEA, base:acid mole ratio 0.60:1, H2O:acid mass ratio 2.5:1, 1 bar CO2, threshold 50 vol % recovered); “No phase separation” in series [1] (base Jeffamine D-230 (two moles acid per mole D-230), H2O:acid mass ratio 1:1-9.5:1, 1 bar CO2); “Partial phase separation^b” in series [1] (setting [7]); “No phase separation” in series [1] (base MDEA, base:acid mole ratio 0.65:1, H2O:acid mass ratio 2.5:1, 1 bar CO2); “No phase separation” in series [1] (base TEA, MDEA, DMEA or 3-DMAP, base:acid mol ratio 1:1, H2O:acid mass ratio 12:1-15:1, 1 bar CO2). The “Behaviour of the system after CO2 addition” value in series [1] (base TEA, base:acid mole ratio 0.65:1, H2O:acid mass ratio 2.5:1, 1 bar CO2) is on record as “No phase separation”. Further, the “pH under 1 bar of CO2” value is given as 6.46 in series [1] (setting [12]); 6.71 in series [1] (setting [13]); 6.85-7.60 in series [1] (setting [14]); 6.70 in series [1] (setting [8]); 6.65 in series [1] (setting [15]); 6.70-6.90 in series [1] (setting [16]). Besides, the “pH under 1 bar of CO2” value in series [1] (setting [17]) is given as 6.75. Further, the pH under air in series [1] (setting [12]) is 6.34; in series [1] (setting [13]), 6.86; in series [1] (setting [14]), 7.60-7.90; in series [1] (setting [8]), 7.55; in series [1] (setting [15]), 6.69; in series [1] (setting [16]), 7.60-7.70. Further, the pH under air in series [1] (setting [17]) is recorded as 6.68. The “Phase behaviour upon addition of 1 bar of CO2” value in series [1] (MDEA) is reported as “no phase separation was observed”. Besides, the “Behaviour of the system” value in series [1] (carboxylic acid:H2O mass ratio 1:1.5 and 1:2.5, carboxylic acid:NaOH mol ratio 1:0.9) was “Switchable”.
For the compound `CCCCCCCC/C=C\CCCCCCCC(=O)O` [Oleic acid, oleic acid], in series [1] (carboxylic acid:H2O mass ratio 1:10, carboxylic acid:NaOH mol ratio 1:1), the “Behaviour of the system” value is recorded as “Biphasic under air”.
In the case of `CCCC(CCC)C(=O)O` [PPA, 2-propylpentanoic acid], the “Behaviour of the system after CO2 addition” value in series [1] (base 3DMAP, base:acid mole ratio 0.60:1, H2O:acid mass ratio 2.5:1, 1 bar CO2, threshold 50 vol % recovered) is on record as “Phase separation above 50”; in series [1] (base DMEA, base:acid mole ratio 0.55:1, H2O:acid mass ratio 2.5:1, 1 bar CO2, threshold 50 vol % recovered), “Phase separation above 50”; in series [1] (setting [5]), “Partial phase separation”; in series [1] (setting [7]) it was “Partial phase separation”; in series [1] (base MDEA, base:acid mole ratio 0.55:1, H2O:acid mass ratio 2.5:1, 1 bar CO2, threshold 50 vol % recovered), “Phase separation above 50”; in series [1] (base TEA, base:acid mole ratio 0.60:1, H2O:acid mass ratio 2.5:1, 1 bar CO2), “No phase separation”. Further, the “pH under 1 bar of CO2” value in series [1] (setting [18]) is reported as 6.70; in series [1] (setting [19]) it was 6.78; in series [1] (setting [6]) it was 6.84; in series [1] (setting [8]), 6.73; in series [1] (setting [20]), 6.69; in series [1] (setting [21]) it was 6.72. The pH under air in series [1] (setting [18]) is reported as 6.63; in series [1] (setting [19]), 6.70; in series [1] (setting [6]), 7.86; in series [1] (setting [8]), 8.43; in series [1] (setting [20]) it was 6.59; in series [1] (setting [21]), 6.51. In series [1] (MDEA), the “Phase behaviour upon addition of 1 bar of CO2” value was “no phase separation was observed”. In series [1] (setting [10]), the “Behaviour of the system” value was “Switchable”. In addition, the “Phase behaviour upon addition of CO2” value in series [1] was “phase separation was observed”. Further, in series [1], the Phases under air entry is “one phase”.
